According to ChEMBL document CHEMBL4011620, “Design and Discovery of N-(2-Methyl-5'-morpholino-6'-((tetrahydro-2H-pyran-4-yl)oxy)-[3,3'-bipyridin]-5-yl)-3-(trifluoromethyl)benzamide (RAF709): A Potent, Selective, and Efficacious RAF Inhibitor Targeting RAS Mutant Cancers” (J Med Chem, 2017):
Values after ≈ are worked out from the molar mass of the structure shown. Active and inactive are the calls of the source. No cut-off for these calls is given here.

Assays:
[1] = target: RAF proto-oncogene serine/threonine-protein kinase (Homo sapiens, UniProt P04049); assay: Activation of CRAF in human Calu6 cells assessed as increase in MEK phosphorylation after 2 hrs by FRET assay; type: cell-based
[2] = Clearance in mouse at 1 mg/kg, iv or 3 mg/kg, po; type: ADME, organism-based; settings: in vivo
[3] = AUC (infinity) in mouse at 3 mg/kg, po; type: ADME, organism-based; design: dose 3 mg/kg, route oral, time infinity; settings: in vivo
Mus musculus [4] = assay: Time during which free plasma concentration exceeds cellular in vitro EC50 for CRAF-mediated ERK phosphorylation in mouse xenografted with human Calu6 cells at 200 mg/kg, po administered as single dose
[5] = target: T1, Discoidin domain-containing receptor 2 (Homo sapiens) (UniProt Q16832); assay: Binding affinity to human DDR2 (555 to 855 residues) expressed in mammalian expression system at 1 uM by kinome scan assay relative to control
T1 sequence (whole entry): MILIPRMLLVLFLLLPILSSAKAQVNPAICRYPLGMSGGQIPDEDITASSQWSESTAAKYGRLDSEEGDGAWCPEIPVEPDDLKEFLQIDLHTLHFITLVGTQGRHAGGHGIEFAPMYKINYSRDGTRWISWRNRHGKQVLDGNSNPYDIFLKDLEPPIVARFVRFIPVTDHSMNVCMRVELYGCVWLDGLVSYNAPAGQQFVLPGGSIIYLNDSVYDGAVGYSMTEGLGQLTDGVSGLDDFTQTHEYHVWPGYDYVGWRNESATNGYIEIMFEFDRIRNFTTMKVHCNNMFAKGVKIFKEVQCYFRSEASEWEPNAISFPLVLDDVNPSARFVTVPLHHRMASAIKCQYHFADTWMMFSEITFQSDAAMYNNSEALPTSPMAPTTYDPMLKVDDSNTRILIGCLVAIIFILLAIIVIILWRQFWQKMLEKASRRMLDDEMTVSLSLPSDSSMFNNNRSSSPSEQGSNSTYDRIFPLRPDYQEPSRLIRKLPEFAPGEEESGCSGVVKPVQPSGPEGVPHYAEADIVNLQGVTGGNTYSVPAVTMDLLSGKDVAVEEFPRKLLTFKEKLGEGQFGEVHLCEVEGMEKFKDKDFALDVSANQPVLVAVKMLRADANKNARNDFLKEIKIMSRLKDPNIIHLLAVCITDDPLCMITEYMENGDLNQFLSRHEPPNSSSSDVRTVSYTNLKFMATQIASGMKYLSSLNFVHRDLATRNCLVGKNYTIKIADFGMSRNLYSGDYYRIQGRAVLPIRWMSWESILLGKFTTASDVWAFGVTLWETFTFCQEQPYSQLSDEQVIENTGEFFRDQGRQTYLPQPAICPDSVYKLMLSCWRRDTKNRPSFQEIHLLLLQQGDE

[6] = Metabolic stability in rat plasma after 3 hrs; type: ADME, cell-free; settings: read-out: Stability
[7] = Metabolic stability in dog plasma after 3 hrs; type: ADME, cell-free, Canis lupus familiaris; settings: read-out: Stability
[8] = Cmax in dog at 1 mg/kg, po; type: ADME, organism-based, Canis lupus familiaris; design: dose 1 mg/kg, route oral; settings: in vivo
Mus musculus [9] = assay: In vivo inhibition of ERK phosphorylation at Thr202/Tyr204 and Thr185/Tyr187 in mouse xenografted with human Calu6 cells at 10 mg/kg, po administered as single dose measured at 24 hrs post dose; type: functional, organism-based
Mus musculus [10] = assay: Toxicity in nude mouse xenografted with human PC3 cells assessed as mortality at 200 mg/kg/day, po administered from day 12 until day 25 post tumor implantation; type: organism-based; settings: in vivo
[11] = Volume of distribution at steady state in dog at 0.3 mg/kg, iv or 1 mg/kg, po; type: ADME, organism-based, Canis lupus familiaris; settings: in vivo, read-out: Vdss
[12] = Metabolic stability in mouse plasma after 3 hrs; type: ADME, cell-free; settings: read-out: Stability
[13] = Protein binding in human plasma; type: ADME, cell-free; settings: read-out: PPB (converted)
Calu-6 [14] = assay: Antitumor activity against human Calu6 cells xenografted in nude mouse assessed as effect on tumor volume at 10 mg/kg/day, po administered for 15 days starting on day 12 post tumor implantation measured on day 27 relative to control; type: functional
Calu-6 [15] = assay: Antiproliferative activity against human Calu6 cells harboring KRAS Q61K mutant assessed as reduction cell viability after 72 hrs by CellTiter-Glo assay; type: functional, cell-based; settings: Calu-6, 72 h
[16] = Oral bioavailability in rat at 10 mg/kg; type: ADME, organism-based; settings: in vivo
PC-3 = assay: Antitumor activity against human PC3 cells xenografted in nude mouse assessed as reduction in tumor volume at 200 mg/kg/day, po dosed on day 12 continued until day 25 post implantation; type: functional, organism-based
[17] = Oral bioavailability in dog at 1 mg/kg; type: ADME, organism-based, Canis lupus familiaris; settings: in vivo
[18] = Protein binding in mouse plasma; type: ADME, cell-free; settings: read-out: PPB (converted)
[19] = target: Serine/threonine-protein kinase B-raf (Homo sapiens, UniProt P15056); assay: Binding affinity to human BRAF (429 to 741 residues) expressed in mammalian expression system at 1 uM by kinome scan assay relative to control
Mus musculus [20] = assay: In vivo inhibition of ERK1/2 phosphorylation at Thr202/Tyr204 and Thr185/Tyr187 in mouse xenografted with human Calu6 cells at 200 mg/kg, po administered as single dose measured up to 24 hrs post dose; type: functional; settings: Calu-6, po
Mus musculus [21] = assay: Toxicity in nude mouse xenografted with human Calu6 cells assessed as body weight loss at 10 to 200 mg/kg/day, po administered for 15 days starting on day 12 post tumor implantation measured twice per week of compound dosing; type: organism-based; settings: in vivo, 360 h
[22] = AUC (infinity) in rat at 10 mg/kg, po; type: ADME, organism-based; design: dose 10 mg/kg, route oral, time infinity; settings: in vivo
[23] = Metabolic stability in human plasma after 3 hrs; type: ADME, cell-free; settings: read-out: Stability
[24] = Cmax in rat at 10 mg/kg, po; type: ADME, organism-based; design: dose 10 mg/kg, route oral; settings: in vivo
[25] = Cmax in mouse at 3 mg/kg, po; type: ADME, organism-based; design: dose 3 mg/kg, route oral; settings: in vivo
Mus musculus [26] = assay: Toxicity in nude mouse xenografted with human Calu6 cells assessed as mortality at 10 to 200 mg/kg/day, po administered for 15 days starting on day 12 post tumor implantation; type: organism-based; settings: in vivo, 360 h
[27] = Protein binding in dog plasma; type: ADME, cell-free, Canis lupus familiaris; settings: read-out: PPB (converted)
[28] = Volume of distribution at steady state in mouse at 1 mg/kg, iv or 3 mg/kg, po; type: ADME, organism-based; settings: in vivo, read-out: Vdss
[29] = target: Platelet-derived growth factor receptor alpha (Homo sapiens) (UniProt P16234); assay: Binding affinity to human PDGFRalpha (330 to 640 residues) expressed in mammalian expression system at 1 uM by kinome scan assay relative to control
Calu-6 [30] = assay: Antitumor activity against human Calu6 cells xenografted in nude mouse assessed as tumor regression at 200 mg/kg/day, po administered for 15 days starting on day 12 post tumor implantation measured on day 27 relative to control; type: functional
[31] = target: Tyrosine-protein kinase FRK (Homo sapiens) (UniProt P42685); assay: Binding affinity to human FRK (215 to 503 residues) expressed in mammalian expression system at 1 uM by kinome scan assay relative to control
Mus musculus [32] = assay: In vivo inhibition of ERK phosphorylation at Thr202/Tyr204 and Thr185/Tyr187 in po dosed mouse xenografted with human Calu6 cells administered as single dose measured after 1 to 24 hrs post dose; type: functional, organism-based
[33] = Solubility of compound at pH 6.8 by shake-flask assay; settings: buffer

Platelet-derived growth factor receptor alpha (Homo sapiens), sequence (P16234 whole entry, the tested form may be a part): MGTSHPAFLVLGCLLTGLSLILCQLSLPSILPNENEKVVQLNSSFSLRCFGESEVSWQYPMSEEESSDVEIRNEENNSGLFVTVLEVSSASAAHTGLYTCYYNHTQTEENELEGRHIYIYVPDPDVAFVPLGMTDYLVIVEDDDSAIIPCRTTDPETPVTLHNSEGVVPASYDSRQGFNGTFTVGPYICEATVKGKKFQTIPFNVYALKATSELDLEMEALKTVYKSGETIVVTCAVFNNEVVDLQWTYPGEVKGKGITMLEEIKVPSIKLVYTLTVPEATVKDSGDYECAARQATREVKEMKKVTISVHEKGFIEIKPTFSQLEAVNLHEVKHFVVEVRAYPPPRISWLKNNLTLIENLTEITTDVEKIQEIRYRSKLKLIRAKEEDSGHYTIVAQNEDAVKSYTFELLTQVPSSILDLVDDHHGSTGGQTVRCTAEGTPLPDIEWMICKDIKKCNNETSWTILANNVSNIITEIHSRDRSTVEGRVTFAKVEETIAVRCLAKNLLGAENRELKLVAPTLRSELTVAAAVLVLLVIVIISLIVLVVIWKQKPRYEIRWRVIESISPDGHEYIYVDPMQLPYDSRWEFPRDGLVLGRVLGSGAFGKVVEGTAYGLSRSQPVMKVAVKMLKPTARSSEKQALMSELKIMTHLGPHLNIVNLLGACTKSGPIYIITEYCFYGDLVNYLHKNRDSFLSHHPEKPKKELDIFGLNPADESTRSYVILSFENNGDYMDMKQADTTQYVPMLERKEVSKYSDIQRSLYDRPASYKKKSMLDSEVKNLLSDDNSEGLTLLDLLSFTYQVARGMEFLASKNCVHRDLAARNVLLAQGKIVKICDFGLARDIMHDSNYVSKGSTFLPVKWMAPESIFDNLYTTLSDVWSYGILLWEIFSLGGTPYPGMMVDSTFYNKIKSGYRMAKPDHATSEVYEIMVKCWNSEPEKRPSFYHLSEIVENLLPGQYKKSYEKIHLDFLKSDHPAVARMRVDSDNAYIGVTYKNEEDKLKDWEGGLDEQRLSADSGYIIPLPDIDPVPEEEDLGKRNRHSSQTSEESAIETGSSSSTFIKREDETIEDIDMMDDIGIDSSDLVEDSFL
Tyrosine-protein kinase FRK (Homo sapiens), sequence (P42685 whole entry, the tested form may be a part): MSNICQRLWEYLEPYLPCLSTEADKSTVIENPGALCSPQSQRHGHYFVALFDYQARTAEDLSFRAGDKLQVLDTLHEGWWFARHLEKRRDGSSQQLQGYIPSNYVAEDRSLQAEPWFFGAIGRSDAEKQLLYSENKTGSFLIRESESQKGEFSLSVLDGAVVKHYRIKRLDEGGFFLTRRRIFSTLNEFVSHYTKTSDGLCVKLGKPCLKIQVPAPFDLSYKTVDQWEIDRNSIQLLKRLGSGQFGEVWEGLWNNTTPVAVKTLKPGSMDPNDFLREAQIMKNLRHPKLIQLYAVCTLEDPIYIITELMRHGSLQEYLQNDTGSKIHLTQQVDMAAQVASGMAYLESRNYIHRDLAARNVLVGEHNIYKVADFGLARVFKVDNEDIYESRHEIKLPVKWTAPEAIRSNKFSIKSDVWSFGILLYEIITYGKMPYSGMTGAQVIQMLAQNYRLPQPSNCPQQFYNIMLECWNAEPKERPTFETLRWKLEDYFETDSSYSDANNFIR
Serine/threonine-protein kinase B-raf, sequence (P15056 whole entry, the tested form may be a part): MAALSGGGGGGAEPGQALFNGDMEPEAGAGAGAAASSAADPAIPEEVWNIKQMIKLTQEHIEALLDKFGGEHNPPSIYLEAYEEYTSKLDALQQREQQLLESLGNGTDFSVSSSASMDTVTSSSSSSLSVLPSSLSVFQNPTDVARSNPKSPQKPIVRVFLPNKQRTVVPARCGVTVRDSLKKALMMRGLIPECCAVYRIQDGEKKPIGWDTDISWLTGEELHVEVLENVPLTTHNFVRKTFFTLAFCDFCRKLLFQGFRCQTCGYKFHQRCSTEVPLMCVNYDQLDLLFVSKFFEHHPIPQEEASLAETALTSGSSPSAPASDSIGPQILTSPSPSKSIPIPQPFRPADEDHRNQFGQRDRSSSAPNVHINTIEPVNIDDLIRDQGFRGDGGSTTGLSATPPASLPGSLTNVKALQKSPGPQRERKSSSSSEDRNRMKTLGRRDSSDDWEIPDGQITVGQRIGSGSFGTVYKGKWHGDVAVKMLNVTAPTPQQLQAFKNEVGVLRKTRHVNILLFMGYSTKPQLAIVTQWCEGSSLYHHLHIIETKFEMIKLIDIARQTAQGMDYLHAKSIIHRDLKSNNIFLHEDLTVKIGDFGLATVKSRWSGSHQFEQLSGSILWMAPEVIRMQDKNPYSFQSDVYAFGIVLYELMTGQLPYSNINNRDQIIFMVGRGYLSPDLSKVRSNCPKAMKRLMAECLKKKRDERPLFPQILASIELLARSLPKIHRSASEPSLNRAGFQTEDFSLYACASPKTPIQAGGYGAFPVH
RAF proto-oncogene serine/threonine-protein kinase, sequence (P04049 whole entry): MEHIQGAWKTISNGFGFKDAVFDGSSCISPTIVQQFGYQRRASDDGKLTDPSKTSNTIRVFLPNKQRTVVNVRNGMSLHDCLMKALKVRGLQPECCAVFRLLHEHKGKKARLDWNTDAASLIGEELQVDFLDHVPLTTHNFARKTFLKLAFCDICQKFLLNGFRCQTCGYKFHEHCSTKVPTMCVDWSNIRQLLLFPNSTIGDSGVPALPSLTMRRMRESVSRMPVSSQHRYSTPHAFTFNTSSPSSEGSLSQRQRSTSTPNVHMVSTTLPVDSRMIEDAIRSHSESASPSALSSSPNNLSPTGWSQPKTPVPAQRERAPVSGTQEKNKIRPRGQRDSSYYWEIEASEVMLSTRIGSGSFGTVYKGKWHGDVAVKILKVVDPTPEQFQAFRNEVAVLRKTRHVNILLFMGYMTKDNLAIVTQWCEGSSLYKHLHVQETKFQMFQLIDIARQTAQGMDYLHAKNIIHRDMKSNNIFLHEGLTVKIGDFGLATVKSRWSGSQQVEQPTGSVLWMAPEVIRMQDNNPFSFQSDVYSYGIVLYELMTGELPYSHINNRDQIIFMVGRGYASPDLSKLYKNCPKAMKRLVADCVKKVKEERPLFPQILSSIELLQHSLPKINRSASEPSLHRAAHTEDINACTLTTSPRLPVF

Cc1ncc(NC(=O)c2cccc(C(F)(F)F)c2)cc1-c1cnc(OC2CCOCC2)c(N2CCOCC2)c1
Activity [1]: Not Active
clearance [2]: 35 mL/min/kg
AUC(0-inf) [3]: 1.7 µM·h
Time (Mus musculus [4]): 24 h
Activity [5]: 86%
remaining at 3 h [6]: 85%
remaining at 3 h [7]: 95%
Cmax [8]: 500 nM
inhibition (Mus musculus [9]): inactive
Activity (Mus musculus [10]): Non-Toxic
Vd [11]: 3.1 L/kg
remaining at 3 h [12]: 82%
fraction unbound [13]: 0.02
T/C (Calu-6 [14]): 92%
EC50 (Calu-6 [15]): 950 nM
bioavailability [16]: 24%
Activity (PC-3): inactive
bioavailability [17]: 48%
fraction unbound [18]: 0.02
Activity [19]: > 99%
inhibition in vivo at 200 mg/kg (Mus musculus [20]): ≥ 70%
Activity (Mus musculus [21]): Non-Toxic
AUC(0-inf) [22]: 1.5 µM·h
remaining at 3 h [23]: 101%
Cmax [24]: 800 nM
Cmax [25]: 1000 nM
Activity (Mus musculus [26]): Non-Toxic
fraction unbound [27]: 0.02
Vd [28]: 1.2 L/kg
Activity [29]: 96%
Activity (Calu-6 [30]): 92%
Activity [31]: 92%
inhibition (Mus musculus [32]): Dose-dependent effect
solubility thermodynamic [33]: 200 µM (≈ 109 µg/mL)
